According to patent US6423716B1, “Nitrogenous heterocyclic compounds” (Kyowa Hakko Kogyo Co., Ltd., priority 1998, dated 2002):

biological target: T1, human β-PDGF receptor (Homo sapiens, UniProt P09619); test: PDGF receptor phosphorylation inhibition test; type: cell-based; conditions: CHO cells expressing human β-PDGF receptor cDNA; concentration inhibiting 50% of PDGF receptor phosphorylation
T1 construct: expressed in transfected cells; host or cells: Chinese hamster ovary (CHO) cells
Description: PDGF Receptor Phosphorylation Inhibition Test
This test was carried out according to the process disclosed in a literature [J. Biol. Chem., 266: 413-418 (1991)]. In this case, Chinese hamster ovary (CHO) cells to which human β-PDGF receptor cDNA had been inserted and in which it had been expressed were used in the test.

T1 sequence (P09619 33-1106): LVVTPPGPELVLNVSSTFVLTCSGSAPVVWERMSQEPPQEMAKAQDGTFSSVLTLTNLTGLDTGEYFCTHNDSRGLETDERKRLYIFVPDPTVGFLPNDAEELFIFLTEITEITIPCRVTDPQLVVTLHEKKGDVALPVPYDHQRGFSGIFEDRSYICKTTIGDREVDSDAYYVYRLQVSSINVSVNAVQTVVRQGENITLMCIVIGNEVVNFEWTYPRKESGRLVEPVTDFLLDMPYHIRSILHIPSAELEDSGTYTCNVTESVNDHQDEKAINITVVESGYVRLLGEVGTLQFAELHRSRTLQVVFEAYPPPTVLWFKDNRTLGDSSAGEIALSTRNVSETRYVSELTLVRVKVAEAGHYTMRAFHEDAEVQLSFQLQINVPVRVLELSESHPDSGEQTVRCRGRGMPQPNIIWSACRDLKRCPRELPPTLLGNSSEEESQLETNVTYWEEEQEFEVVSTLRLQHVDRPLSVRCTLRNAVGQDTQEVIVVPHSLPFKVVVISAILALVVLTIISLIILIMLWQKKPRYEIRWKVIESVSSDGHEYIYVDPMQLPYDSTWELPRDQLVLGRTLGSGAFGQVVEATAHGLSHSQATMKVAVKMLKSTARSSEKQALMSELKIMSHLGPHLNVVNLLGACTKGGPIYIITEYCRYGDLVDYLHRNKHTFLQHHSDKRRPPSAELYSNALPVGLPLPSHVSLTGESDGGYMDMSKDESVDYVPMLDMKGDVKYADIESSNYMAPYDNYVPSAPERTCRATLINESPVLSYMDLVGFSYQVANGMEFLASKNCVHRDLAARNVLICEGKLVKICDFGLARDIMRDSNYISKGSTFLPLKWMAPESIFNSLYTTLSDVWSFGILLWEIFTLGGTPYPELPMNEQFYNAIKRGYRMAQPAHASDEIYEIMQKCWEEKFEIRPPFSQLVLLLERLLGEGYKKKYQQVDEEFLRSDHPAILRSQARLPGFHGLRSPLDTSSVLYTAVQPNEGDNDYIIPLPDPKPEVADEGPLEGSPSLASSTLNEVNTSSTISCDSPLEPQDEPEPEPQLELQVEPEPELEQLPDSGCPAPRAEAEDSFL

Row | Compound | IC50
1 | COc1cc2ncnc(N3CCN(C(=NC#N)NCc4ccc(Cl)cc4)CC3)c2cc1OC [Compound 31, N-(4-Chlorobenzyl)-N′-cyano-4-(6,7-dimethoxy-4-quinazolinyl)-1-piperazinecarboxamidine] | 380 nM
2 | COc1cc2ncnc(N3CCN(C(=NC#N)NCc4ccc5c(c4)OCO5)CC3)c2cc1OC [Compound 41, N′-Cyano-4-(6,7-dimethoxy-4-quinazolinyl)-N-(3,4-methylenedioxybenzyl)-1-piperazinecarboxamidine] | 190 nM

same assay, conditions: CHO cells expressing human β-PDGF receptor; test compound at 10 μM

Row | Compound | inhibition at 10 µM
3 | O=C(Nc1ccc(Oc2ccccc2)cc1)N1CCN(c2ncnc3cnc(F)cc23)CC1 [Compound 22, N-(4-Phenoxyphenyl)-4-(6-fluoro-4-pyrido[3,4-d]pyrimidinyl)-1-piperazinecarboxamide] | 66%
4 | COc1ccc(CNC(=C(C#N)C#N)N2CCN(c3ncnc4cc(OC)c(OC)cc34)CC2)cc1 [Compound 53, 4-{4-[2,2-Dicyano-1-(4-methoxybenzylamino)vinyl]-1-piperazinyl}-6,7-dimethoxyquinazoline] | 87%
5 | COc1cc2ncnc(N3CCN(C(NCc4cccc(Cl)c4)=C(C#N)C#N)CC3)c2cc1OC [Compound 51, 4-{4-[1-(3-Chlorobenzylamino)-2,2-dicyanovinyl]-1-piperazinyl}-6,7-dimethoxyquinazoline] | 82%
6 | COc1cc2ncnc(N3CCN(C(SC)=C(C#N)C#N)CC3)c2cc1OC [Compound 64, 4-[4-(2,2-Dicyano-1-methylthiovinyl)-1-piperazinyl]-6,7-dimethoxyquinazoline] | 82%
7 | COc1cc2ncnc(N3CCN(C(=NC#N)Oc4ccccc4)CC3)c2cc1OC [Compound 67, N-Cyano-4-(6,7-dimethoxy-4-quinazolinyl)-1-piperazinecarboximidic acid phenyl ester] | 95%

test system: not given; test: not given; conditions: not given

Row | Compound | melting point
8 | Cl.Cl.Nc1nc(N2CCN(C(=S)NCc3cccnc3)CC2)c2[nH]cnc2n1 | 180 to 185 °C (dec.)
9 | Nc1nc(N2CCN(C(=O)Nc3ccc(Oc4ccccc4)cc3)CC2)c2[nH]cnc2n1 [Compound 5, 4-(2-Amino-6-purinyl)-N-(4-phenoxyphenyl)-1-piperazinecarboxamide] | 244 to 258 °C
10 | O=C(Nc1ccc(Oc2ccccc2)cc1)N1CCN(c2ncnc3nc[nH]c23)CC1 [Compound 1, N-(4-Phenoxyphenyl)-4-(6-purinyl)-1-piperazinecarboxamide] | 250 to 251 °C
11 | Cl.Cl.S=C(NCc1cccnc1)N1CCN(c2ncnc3nc[nH]c23)CC1 | 178 to 185 °C
12 | S=C(NCc1ccccc1)N1CCN(c2ncnc3nc[nH]c23)CC1 [Compound 3, N-Benzyl-4-(6-purinyl)-1-piperazinethiocarboxamide] | 255 to 260 °C
13 | Cn1ncc2c(N3CCN(C(=O)Nc4ccc(Oc5ccccc5)cc4)CC3)ncnc21 | 155 to 156 °C
14 | Cn1cnc2c(N3CCN(C(=O)Nc4ccc(Oc5ccccc5)cc4)CC3)ncnc21 | 168 to 169 °C
15 | S=C(NCc1ccccc1)N1CCN(c2ncnc3ncccc23)CC1 [Compound 21, N-Benzyl-4-(4-pyrido[2,3-d]pyrimidinyl)-1-piperazinethiocarboxamide] | 169 to 170 °C
16 | O=C(Nc1ccc([N+](=O)[O-])cc1)N1CCN(c2ncnc3nc[nH]c23)CC1 | 270 to 275 °C (dec.)
17 | Cl.Cl.S=C(NCc1cccnc1)N1CCN(c2ncnc3c2cnn3-c2ccccc2)CC1 | 160 to 163 °C
18 | Nc1nc(N2CCN(C(=O)Nc3ccc([N+](=O)[O-])cc3)CC2)c2[nH]cnc2n1 | 208 to 214 °C
19 | Cn1ncc2c(N3CCN(C(=S)NCc4ccccc4)CC3)ncnc21 | 175 to 176 °C
20 | O=C(Nc1ccc(Oc2ccccc2)cc1)N1CCN(c2ncnc3ncccc23)CC1 [Compound 20, N-(4-Phenoxyphenyl)-4-(4-pyrido[2,3-d]pyrimidinyl)-1-piperazinecarboxamide] | 104 to 106 °C
21 | Cn1ncc2c(N3CCN(C(=S)NCc4cccnc4)CC3)ncnc21 | 210 to 211 °C
22 | Nc1nc(N2CCN(C(=S)NCc3ccccc3)CC2)c2[nH]cnc2n1 [Compound 7, 4-(2-Amino-6-purinyl)-N-benzyl-1-piperazinethiocarboxamide] | 242 to 245 °C
23 | Cc1nn(C)c2ncc(C(N)=O)c(N3CCN(C(=O)Nc4ccc(Oc5ccccc5)cc4)CC3)c12 [Compound 12, 4-(5-Carbamoyl-1,3-dimethyl-4-1H-pyrazolo[3,4-b]pyridyl)-N-(4-phenoxyphenyl)-1-piperazinecarboxamide] | 248 to 250 °C
